This is an account of results in patent US4442115A, “2'Hydroxy tetrazole-5-carboxanilides and anti-allergic use thereof” (May & Baker Limited, priority 1977, dated 1984).

Common to all, as to assay type: in vivo
The test system of series [1] is passive cutaneous anaphylactic (PCA) reaction. The series is described as follows: suppression of passive cutaneous anaphylactic (PCA) reaction, oral administration. The settings on record: Rattus norvegicus, rats, p.o., thirty minutes before intravenous injection of allergen, read-out: ED 50 (p.o.): oral dose which produces 50% inhibition of the PCA reaction. An excerpt: (§1) In pharmacological tests the new compounds suppress the passive cutaneous anaphylactic (PCA) reaction resulting from combination of tissue-fixed reaginic antibodies with the appropriate antigenic material (termed reagin-allergen combination) and carried out in an essentially similar manner to that described by Ogilvie [Nature (Lond.), (1964), 204, 91-92; Immunology, (1967), 12, 112-131]. In the method used to test these compounds sera were obtained from rats which had been infected with larvae of the nematode parasite Nippostrongylus brasiliensis; as a result of the parasitic infestation reaginic antibodies are elaborated in the host mammal and are found in sera removed from such animals. Other, non-infected, rats received intradermal injections of appropriate dilutions of such sera and were then given the allergenic material along with Evans' blue dye intravenously forty-eight hours later.
(§2) The allergenic material consisted of supernatant fluid after centrifugation of homogenates of adult Nippostrongylus brasiliensis worms which had been macerated in Tyrode's solution. The sites of PCA reactions were visualised by the effusion of Evans' blue dye from the circulation into those areas as a result of increased capillary permeability caused by the release of biologically-active substances from cells where reagin-allergen combination had occurred. The new compounds when given intravenously to the rats just before injection of allergen, or administered orally thirty minutes before intravenous injection of allergen, were able to prevent the development of the PCA reaction, as shown below in Table I and Table II.

For series [2] the test system is unchanged. In words: suppression of passive cutaneous anaphylactic (PCA) reaction, intravenous administration. The note with it: Rattus norvegicus, rats, i.v., just before injection of allergen, read-out: ED 100 (i.v.): intravenous dose which produces 100% inhibition of the PCA reaction.
Description: as §1, §2

Series [3] can be described thus: oral toxicity in mice. The note with it: 1000 mg/kg animal body weight, observation period of 3 days.

Turning to `CCC(=O)c1cc(CC)cc(NC(=O)c2nnn[nH]2)c1O` [AA, 5'-ethyl-2'-hydroxy-3'-propionyltetrazole-5-carboxanilide], in series [1], the ED50 amounted to 1.3 mg/kg. Further, the ED100 in series [2] was found to be 0.01 mg/kg.

Turning to `CCC(=O)c1cc(C)cc(NC(=O)c2nnn[nH]2)c1O` [BB, 2'-hydroxy-5'-methyl-3'-propionyltetrazole-5-carboxanilide], the ED50 in series [1] was determined as 0.88 mg/kg. In addition, in series [2], the ED100 was determined as 0.02 mg/kg.

With `COc1cc(Br)cc(NC(=O)c2nnn[nH]2)c1O` [CC, 5'-bromo-2'-hydroxy-3'-methoxytetrazole-5-carboxanilide], in series [1], the ED50 turned out to be 16 mg/kg. For the same compound, in series [2], the ED100 is 0.05 mg/kg.

Take `O=C(Nc1ccccc1O)c1nnn[nH]1` [Compound A, 2'-hydroxytetrazole-5-carboxanilide]: the ED50 in series [1] came out at 5.5 mg/kg. In addition, the ED100 in series [2] was found to be 0.2 mg/kg.

In the case of `CC(=O)c1cc(C)cc(NC(=O)c2nnn[nH]2)c1O` [Compound B, 3'-acetyl-2'-hydroxy-5'-methyltetrazole-5-carboxanilide], the ED50 in series [1] is 0.06 mg/kg. The ED100 in series [2] amounted to 0.01 mg/kg. Besides, the “deaths during observation period” value in series [3] is reported as “no deaths occurred”.

On to `CCc1cccc(NC(=O)c2nnn[nH]2)c1O` [Compound C, 3'-ethyl-2'-hydroxytetrazole-5-carboxanilide], for which, in series [1], the ED50 was 0.7 mg/kg. In series [2], the ED100 worked out at 0.1 mg/kg.

On to `CCc1cc(NC(=O)c2nnn[nH]2)c(O)c(C(C)=O)c1` [Compound D, 3'-acetyl-5'-ethyl-2'-hydroxytetrazole-5-carboxanilide], for which the ED50 in series [1] came to 0.19 mg/kg. Moreover, the ED100 in series [2] worked out at 0.01 mg/kg.

On to `CC(=NO)c1cc(C)cc(NC(=O)c2nn[nH]n2)c1O` [Compound DD, 2'-hydroxy-3'-(1-hydroxyimino)ethyl-5'-methyltetrazole-5-carboxanilide], for which the ED100 in series [2] turned out to be 0.002 mg/kg.

`CC(=O)c1cc([N+](=O)[O-])cc(NC(=O)c2nnn[nH]2)c1O` [E, 3'-acetyl-2'-hydroxy-5'-nitrotetrazole-5-carboxanilide]: the ED50 in series [1] turned out to be 0.04 mg/kg. Further, the ED100 in series [2] is 0.02 mg/kg.

Consider `CON=C(C)c1cc(C)cc(NC(=O)c2nn[nH]n2)c1O` [EE, 2'-hydroxy-3'-(1-methoxyimino)ethyl-5'-methyltetrazole-5-carboxanilide], for which the ED100 in series [2] stood at 0.02 mg/kg.

Consider `Cc1cc(NC(=O)c2nnn[nH]2)c(O)c(C(=O)C(C)C)c1` [G, 2'-hydroxy-3'-isobutyryl-5'-methyltetrazole-5-carboxanilide], for which, in series [1], the ED50 was determined as 3.2 mg/kg. The ED100 in series [2] was 0.02 mg/kg.

Consider `CC(=O)c1cc(C#N)cc(NC(=O)c2nnn[nH]2)c1O` [H, 3'-acetyl-5'-cyano-2'-hydroxytetrazole-5-carboxanilide], for which the ED50 in series [1] is 0.4 mg/kg. Further, the ED100 in series [2] is 0.01 mg/kg.

Turning to `Cc1cc(NC(=O)c2nnn[nH]2)c(O)c(C(=O)C2CC2)c1` [I, 3'-cyclopropylcarbonyl-2'-hydroxy-5'-methyltetrazole-5-carboxanilide], the ED100 in series [2] worked out at 0.02 mg/kg. The “deaths during observation period” value in series [3] was “no deaths occurred”.

Consider `CC(=O)c1cc(F)cc(NC(=O)c2nnn[nH]2)c1O` [K, 3'-acetyl-5'-fluoro-2'-hydroxytetrazole-5-carboxanilide], for which the ED100 in series [2] is 0.01 mg/kg.

For `CC(=O)c1cc(Br)cc(NC(=O)c2nnn[nH]2)c1O` [L, 3'-acetyl-5'-bromo-2'-hydroxytetrazole-5-carboxanilide], the ED100 in series [2] stood at 0.05 mg/kg.

With `COc1cc(NC(=O)c2nnn[nH]2)c(O)c(C(C)=O)c1` [M, 3'-acetyl-2'-hydroxy-5'-methoxytetrazole-5-carboxanilide], in series [2], the ED100 turned out to be 0.01 mg/kg.

With `CCC(=O)c1cc(C#N)cc(NC(=O)c2nnn[nH]2)c1O` [N, 5'-cyano-2'-hydroxy-3'-propionyltetrazole-5-carboxanilide], the ED100 in series [2] was 0.02 mg/kg.

Turning to `CC(=O)c1cc(N)cc(NC(=O)c2nnn[nH]2)c1O` [P, 3'-acetyl-5'-amino-2'-hydroxytetrazole-5-carboxanilide], the ED100 in series [2] came to 0.05 mg/kg.

For `COc1cccc(NC(=O)c2nnn[nH]2)c1O` [R, 2'-hydroxy-3'-methoxytetrazole-5-carboxanilide], the ED50 in series [1] was determined as 2.9 mg/kg. Also, in series [2], the ED100 was found to be 0.02 mg/kg.

With `CCc1cc(NC(=O)c2nnn[nH]2)c(O)c(OC)c1` [S, 5'-ethyl-2'-hydroxy-3'-methoxytetrazole-5-carboxanilide], in series [1], the ED50 was 1.8 mg/kg. Further, the ED100 in series [2] is 0.01 mg/kg.

As for `COc1cc(C)cc(NC(=O)c2nnn[nH]2)c1O` [T, 2'-hydroxy-3'-methoxy-5'-methyltetrazole-5-carboxanilide], the ED50 in series [1] was found to be 6.5 mg/kg. For the same compound, in series [2], the ED100 came to 0.02 mg/kg.

In the case of `CCCC(=O)c1cc(C)cc(NC(=O)c2nnn[nH]2)c1O` [U, 3'-butyryl-2'-hydroxy-5'-methyltetrazole-5-carboxanilide], the ED100 in series [2] stood at 0.05 mg/kg.

Regarding `Cc1cc(NC(=O)c2nnn[nH]2)c(O)c(C(=O)N(C)C)c1` [V, 3'-(N,N-dimethylcarbamoyl)-2'-hydroxy-5'-methyltetrazole-5-carboxanilide], the ED100 in series [2] is 0.2 mg/kg.

As for `COC(=O)c1cc(C)cc(NC(=O)c2nnn[nH]2)c1O` [W, 2'-hydroxy-3'-methoxycarbonyl-5'-methyltetrazole-5-carboxanilide], the ED50 in series [1] came out at 5.6 mg/kg. Moreover, in series [2], the ED100 turned out to be 0.05 mg/kg.

On to `CCOC(=O)c1cc(C)cc(NC(=O)c2nnn[nH]2)c1O` [X, 3'-ethoxycarbonyl-2'-hydroxy-5'-methyltetrazole-5-carboxanilide], for which, in series [1], the ED50 stood at 36 mg/kg. In addition, the ED100 in series [2] amounted to 0.01 mg/kg.

As for `CCCc1cc(NC(=O)c2nnn[nH]2)c(O)c(C(C)=O)c1` [Y, 3'-acetyl-2'-hydroxy-5'-propyltetrazole-5-carboxanilide], in series [1], the ED50 was 0.46 mg/kg. For the same compound, in series [2], the ED100 is 0.01 mg/kg.

Consider `CC(=O)c1cccc(NC(=O)c2nnn[nH]2)c1O` [Z, 3'-acetyl-2'-hydroxytetrazole-5-carboxanilide], for which the ED50 in series [1] was determined as 0.06 mg/kg. The ED100 in series [2] was determined as 0.005 mg/kg.
